Experiments:
[1] = Dissolution of hapten-spacer conjugate for coupling; format: physicochemical; details: at 50 mg per ml
Procedure: a) The hapten-spacer conjugates were obtained as a yellow oil and stored at 2 to 8° C. until the day of use (for up to one week, longer storage was at −20° C.). […] The result was a yellow-brown suspension or solution.

anti-nicotine antibodies = test: Competition ELISA to determine specificity of antibodies induced by anti-nicotine vaccines; format: binding, mouse; details: plasma of mice immunized with conjugates of examples 1 and 2; inhibitors diluted serially from 20,000 μM

Compound	solubility in deionised water [1]	inhibition of binding of anti-nicotine antibodies to nicotine-coated ELISA plates by added inhibitor (anti-nicotine antibodies)
CN1CCC[C@H]1c1cncc(CCCNC(=O)CCCCCCN)c1 [Preparation 33, 7-amino-N-(3-{5-[(2S)-1-methylpyrrolidin-2-yl]pyridin-3-yl}propyl) heptanamide]	did not dissolve fully in deionised water	–
CN1C(=O)CC[C@H]1c1cccnc1 [cotinine]	–	no such effect is observed
c1cnc2cc3c(cc2n1)[C@@H]1CNC[C@H]3C1 [varenicline]	–	no such effect is observed
CN1CCCC1c1cccnc1 (stereo not shown) [nicotine]	–	dose-dependent inhibition of binding
